{
  "source": "patent US6599506B1",
  "about": "“D-form polypeptide that inhibits the interaction between LFA-1 and ICAM-1” (The University of Kansas, priority 1999, dated 2003)",
  "molecules": {"B1": {"name": "cLBEL (peptide)", "peptide": "H-[Pen]DLSYSLDDLRC-NH2", "modifications": "disulfide 1-12", "SMILES": "CC(C)C[C@@H]1NC(=O)[C@H](CC(=O)O)NC(=O)[C@H](CC(=O)O)NC(=O)[C@H](CC(C)C)NC(=O)[C@H](CO)NC(=O)[C@H](Cc2ccc(O)cc2)NC(=O)[C@H](CO)NC(=O)[C@H](CC(C)C)NC(=O)[C@H](CC(=O)O)NC(=O)[C@@H](N)C(C)(C)SSC[C@@H](C(N)=O)NC(=O)[C@H](CCCNC(=N)N)NC1=O"}, "B2": {"name": "D-LBER (peptide)", "peptide": "H-GG[dD][dL][dL][dR][dA][dL][dN][dE]-OH", "SMILES": "CC(C)C[C@@H](NC(=O)[C@@H](C)NC(=O)[C@@H](CCCNC(=N)N)NC(=O)[C@@H](CC(C)C)NC(=O)[C@@H](CC(C)C)NC(=O)[C@@H](CC(=O)O)NC(=O)CNC(=O)CN)C(=O)N[C@H](CC(N)=O)C(=O)N[C@H](CCC(=O)O)C(=O)O"}, "B3": {"name": "cLBEC (peptide)", "peptide": "H-[Pen]DLRNVKKLGGC-NH2", "modifications": "disulfide 1-12", "SMILES": "CC(C)C[C@@H]1NC(=O)[C@H](CCCCN)NC(=O)[C@H](CCCCN)NC(=O)[C@H](C(C)C)NC(=O)[C@H](CC(N)=O)NC(=O)[C@H](CCCNC(=N)N)NC(=O)[C@H](CC(C)C)NC(=O)[C@H](CC(=O)O)NC(=O)[C@@H](N)C(C)(C)SSC[C@@H](C(N)=O)NC(=O)CNC(=O)CNC1=O"}, "B4": {"name": "D-LBEL (peptide)", "peptide": "H-[dD][dL][dS][dY][dS][dL][dD][dD][dL][dR]-OH", "SMILES": "CC(C)C[C@@H](NC(=O)[C@H](N)CC(=O)O)C(=O)N[C@H](CO)C(=O)N[C@H](Cc1ccc(O)cc1)C(=O)N[C@H](CO)C(=O)N[C@H](CC(C)C)C(=O)N[C@H](CC(=O)O)C(=O)N[C@H](CC(=O)O)C(=O)N[C@H](CC(C)C)C(=O)N[C@H](CCCNC(=N)N)C(=O)O"}},
  "key": {"[1]": {"tested_on": "human tonsil T cells (responders) with irradiated human mononuclear stimulator cells; T-cell proliferation", "type": "cell-based", "settings": "for inhibitory effect on T-cell proliferation: FIG. 3, tested at 125, 250 and 500 μM; for effectiveness in inhibiting responder T-cell proliferation: FIG. 2, tested at 50, 150, 250, 350, 500 and 750 μM; for Inhibition of T-cell Proliferation (%): peptides at 500 μM", "source_text": "The one-way MLR has been previously described (Kruisbeek et al., Current Protocols in Immunology, Proliferative Assays for T-Cell Function, '3.12.1-3.12.14 (1991), which is incorporated herein by reference). Specifically, human tonsil T cells were suspended at a concentration of 2−4×10^6 cells/ml in cell culture medium (RPMI), for use as responders. Stimulator cells were human mononuclear cells isolated from first Ficoll separation of peripheral blood (buffy coat) and were suspended at a concentration of 2−4×10^6 cells/ml in cell culture medium (RPMI). The stimulator cells were inactivated before use by treatment with 3,000-5,000 rad of ionizing radiation from γ137Cs source. One hundred μl of each cell suspension were combined in each well of a 96-well plate in the absence or presence of varying concentrations of test polypeptides, as detailed below. Cell proliferation was assessed after 72 hours, by 3H-thymidine addition to each well (1 μCi/well, 67 Ci/mmol) with incubation for six hours. The cells were harvested using a PHD Cell Harvester (Cambridge Technology, Inc., Watertown, Mass.); the incorporated 3H was assessed using a liquid scintillation counter (Packard Instrument, Inc., Donner's Grove, Ill.).\nIn FIGS. 2 and 3, the Y-axis values are mean percentage ±SE of proliferation of responders. “2s” refers to irradiated buffy coat cells, and “2r” refers to T-lymphocytes derived from tonsil. “2s2r” refers to non-treated, mixed lymphocyte sample, which is the positive control (represented by dashed line). Inhibition of proliferation by anti-CD11a antibody (Pharmingen, anti-human CD11a) was used as a control for inhibition of the LFA-1/ICAM-1 interaction. These polypeptides are derived from the human LFA-1 β (CD18) subunit."}, "[2]": {"biological_target": "intracellular adhesion molecule (ICAM-1; CD54) (UniProt P05362 28-532, limits assumed)", "sequence (P05362 28-532 limits assumed)": "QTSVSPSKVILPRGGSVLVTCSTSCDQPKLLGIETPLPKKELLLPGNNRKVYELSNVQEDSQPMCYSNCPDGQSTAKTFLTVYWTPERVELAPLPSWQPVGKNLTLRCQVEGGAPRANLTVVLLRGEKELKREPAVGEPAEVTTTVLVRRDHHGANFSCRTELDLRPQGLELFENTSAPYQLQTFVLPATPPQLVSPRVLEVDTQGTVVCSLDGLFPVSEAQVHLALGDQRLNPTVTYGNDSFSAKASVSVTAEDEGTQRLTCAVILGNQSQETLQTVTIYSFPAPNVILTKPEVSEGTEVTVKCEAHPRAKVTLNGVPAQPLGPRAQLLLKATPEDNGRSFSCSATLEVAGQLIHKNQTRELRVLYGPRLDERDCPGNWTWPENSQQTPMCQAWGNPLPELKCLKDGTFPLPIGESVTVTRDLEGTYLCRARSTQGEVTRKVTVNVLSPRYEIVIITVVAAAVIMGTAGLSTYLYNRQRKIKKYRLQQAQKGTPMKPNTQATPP", "assay": "cell-based or functional assay"}, "[3]": {"settings": "linear D-peptides (*3), minus value = peptide activated T-lymphocytes"}},
  "note": "Like-named read-outs stand apart in the source and are kept apart here. Bridge positions count the residues as written; N and C are the ends. Square brackets hold non-standard residues; d marks the D form. Ends that are not written are not given here. Peptide text beside a SMILES is read from it. Pen = CC(C)(S)[C@H](N)C(=O)O",
  "data": [
    {"molecule": "CC(C)C[C@@H](NC(=O)[C@H](N)CC(=O)O)C(=O)N[C@H](CO)C(=O)N[C@H](Cc1ccc(O)cc1)C(=O)N[C@H](CO)C(=O)N[C@H](CC(C)C)C(=O)N[C@H](CC(=O)O)C(=O)N[C@H](CC(=O)O)C(=O)N[C@H](CC(C)C)C(=O)N[C@H](CCCNC(=N)N)C(=O)O", "note": "[D-LBEL, H-DLSYSLDDLR-OH] (H-[dD][dL][dS][dY][dS][dL][dD][dD][dL][dR]-OH)", "values": [
      {"measurement": "inhibiting T-cell proliferation in MLR assays", "setting": "[1]", "value": "significantly effective"},
      {"measurement": "inhibitory effect on T-cell proliferation", "setting": "[1]", "value": "amazing inhibitory effect, which was much more effective than either LBE or cLBEL"}
    ]},
    {"molecule": "CC(C)C[C@@H]1NC(=O)[C@H](CCCCN)NC(=O)[C@H](CCCCN)NC(=O)[C@H](C(C)C)NC(=O)[C@H](CC(N)=O)NC(=O)[C@H](CCCNC(=N)N)NC(=O)[C@H](CC(C)C)NC(=O)[C@H](CC(=O)O)NC(=O)[C@@H](N)C(C)(C)SSC[C@@H](C(N)=O)NC(=O)CNC(=O)CNC1=O", "note": "[cLBEC, H-PenDLRNVKKLGGC-NH2] (H-[Pen]DLRNVKKLGGC-NH2; disulfide 1-12)", "values": [
      {"measurement": "effectiveness in inhibiting responder T-cell proliferation", "setting": "[1]", "value": "more effective than LBE"}
    ]},
    {"molecule": "CC(C)C[C@@H]1NC(=O)[C@H](CC(=O)O)NC(=O)[C@H](CC(=O)O)NC(=O)[C@H](CC(C)C)NC(=O)[C@H](CO)NC(=O)[C@H](Cc2ccc(O)cc2)NC(=O)[C@H](CO)NC(=O)[C@H](CC(C)C)NC(=O)[C@H](CC(=O)O)NC(=O)[C@@H](N)C(C)(C)SSC[C@@H](C(N)=O)NC(=O)[C@H](CCCNC(=N)N)NC1=O", "note": "[cLBEL, H-PenDLSYSLDDLRC-NH2] (H-[Pen]DLSYSLDDLRC-NH2; disulfide 1-12)", "values": [
      {"measurement": "effectiveness in inhibiting responder T-cell proliferation", "setting": "[1]", "value": "more effective than LBE"}
    ]},
    {"molecule": "H-DLRNVKKLGG-H (H-[dD][dL][dR][dN][dV][dK][dK][dL]GG; not fully specified; also: C-terminus written -H) [D-LBEC]", "values": [
      {"measurement": "inhibitory effect on T-cell proliferation", "setting": "[1]", "value": "did not show any inhibitory effects"},
      {"measurement": "Inhibition of T-cell Proliferation (%)", "setting": "[1]; [3]", "value": "−47.6(*4) %"}
    ]},
    {"molecule": "H-GGDLLRALNE-OH (H-GG[dD][dL][dL][dR][dA][dL][dN][dE]-OH) [D-LBER]", "values": [
      {"measurement": "inhibitory effect on T-cell proliferation", "setting": "[1]", "value": "lost the biological function to inhibit T-cell proliferation"},
      {"measurement": "Inhibition of T-cell Proliferation (%)", "setting": "[1]; [3]", "value": "−90.5(*4) %"}
    ]},
    {"molecule": "LBEL: linear L-peptide of Table 2, sequence not printed (DLSYSLDDLR)", "values": [
      {"measurement": "Inhibition of T-cell Proliferation (%)", "setting": "[1]; linear L-peptides (*1), second value of cell 'x/y'", "value": "N.D./24.8%"}
    ]},
    {"molecule": "B1", "values": [
      {"measurement": "Inhibition of T-cell Proliferation (%) in mixed lymphocyte reaction, peptide at 500 µM", "setting": "[2]", "value": 18, "unit": "%"}
    ]},
    {"molecule": "DLSYSLDDLR", "note": "[LBEL (linear L-peptide)]", "values": [
      {"measurement": "Inhibition of T-cell Proliferation (%) in mixed lymphocyte reaction, peptide at 500 µM", "setting": "[2]", "value": 24.8, "unit": "%"}
    ]},
    {"molecule": "H-[dD][dL][dR][dN][dV][dK][dK][dL]GG (not fully specified (C-terminus))", "note": "[D-LBEC]", "values": [
      {"measurement": "Inhibition of T-cell Proliferation (%) in mixed lymphocyte reaction, peptide at 500 µM", "setting": "[2]", "value": -47.6, "unit": "%"}
    ]},
    {"molecule": "B2", "values": [
      {"measurement": "Inhibition of T-cell Proliferation (%) in mixed lymphocyte reaction, peptide at 500 µM", "setting": "[2]", "value": -90.5, "unit": "%"}
    ]},
    {"molecule": "B3", "values": [
      {"measurement": "Inhibition of T-cell Proliferation (%) in mixed lymphocyte reaction, peptide at 500 µM", "setting": "[2]", "value": 18, "unit": "%"}
    ]},
    {"molecule": "B4", "values": [
      {"measurement": "Inhibition of T-cell Proliferation (%) in mixed lymphocyte reaction, peptide at 500 µM", "setting": "[2]", "value": 56.5, "unit": "%"}
    ]}
  ]
}
